Assay results reported in ChEMBL document CHEMBL2069285, “Synthesis of N-(1-methyl-1H-indol-3-yl)methyleneamines and 3,3-diaryl-4-(1-methyl-1H-indol-3-yl)azetidin-2-ones as potential antileishmanial agents” (Bioorg Med Chem Lett, 2012).
Values after ≈ are worked out from the molar mass of the structure shown.

test system: Leishmania major; experiment: Antileishmanial activity against promastigotes of Leishmania major after 72 hrs by neubauer counting chamber analysis; assay type: functional, organism-based

IC50 [µg/mL] | SMILES
0.57 (≈ 1.16 µM) | Cc1ccc(C2(c3ccc(C)cc3)C(=O)N(c3ccc(Cl)cc3)C2c2cn(C)c3ccccc23)cc1 (stereo unspecified)
0.58 (≈ 2.16 µM) | Cn1cc(/C=N/c2ccc(Cl)cc2)c2ccccc21
0.66 (≈ 2.66 µM) | Cc1ccc(/N=C/c2cn(C)c3ccccc23)cc1
0.59 (≈ 1.33 µM) | Cc1ccc(N2C(=O)C(c3ccccc3)(c3ccccc3)C2c2cn(C)c3ccccc23)cc1 (stereo unspecified)
0.6 (≈ 1.4 µM) | Cn1cc(C2N(c3ccccc3)C(=O)C2(c2ccccc2)c2ccccc2)c2ccccc21 (stereo unspecified)
0.76 (≈ 3.24 µM) | Cn1cc(/C=N/c2ccccc2)c2ccccc21
0.6 (≈ 1.27 µM) | Cc1ccc(N2C(=O)C(c3ccc(C)cc3)(c3ccc(C)cc3)C2c2cn(C)c3ccccc23)cc1 (stereo unspecified)
0.6 (≈ 1.85 µM) | Cn1cc(/C=N/C(c2ccccc2)c2ccccc2)c2ccccc21
0.56 (≈ 1.18 µM) | CCOc1ccc(N2C(=O)C(c3ccccc3)(c3ccccc3)C2c2cn(C)c3ccccc23)cc1 (stereo unspecified)
0.63 (≈ 1.26 µM) | CCOc1ccc(N2C(=O)C(c3ccc(C)cc3)(c3ccc(C)cc3)C2c2cn(C)c3ccccc23)cc1 (stereo unspecified)
0.71 (≈ 2.86 µM) | Cn1cc(/C=N/Cc2ccccc2)c2ccccc21
0.57 (≈ 2.3 µM) | Cc1ccccc1/N=C/c1cn(C)c2ccccc12
0.76 (≈ 1.64 µM) | Cn1cc(C2N(c3ccc(Cl)cc3)C(=O)C2(c2ccccc2)c2ccccc2)c2ccccc21 (stereo unspecified)
0.88 (≈ 3.16 µM) | CCOc1ccc(/N=C/c2cn(C)c3ccccc23)cc1
0.92 (≈ 3.48 µM) | COc1ccc(/N=C/c2cn(C)c3ccccc23)cc1
0.56 (≈ 1.23 µM) | Cc1ccc(C2(c3ccc(C)cc3)C(=O)N(c3ccccc3)C2c2cn(C)c3ccccc23)cc1 (stereo unspecified)
